Measured values taken from US9981940B2, “Aryl sulfide derivatives and aryl sulfoxide derivatives as acaricides and insecticides” (BAYER CROPSCIENCE AKTIENGESELLSCHAFT, priority 2013, dated 2018).

How the values were obtained:
[1] = log P by HPLC (OECD Guideline 117), method [b] neutral range; format: physicochemical; details: HPLC; for logP[b]: method [b] neutral range; for chromatographic logP: reversed-phase C18 HPLC column, neutral range, pH 7.8
Description: (§1) The log P values were determined analogously to OECD Guideline 117 (EC Directive 92/69/EEC) by HPLC (high-performance liquid chromatography) using reversed-phase columns (C 18), by the following methods:
[b] The LC-MS determination in the neutral range is effected at pH 7.8 with 0.001 molar aqueous ammonium hydrogencarbonate solution and acetonitrile as eluents; linear gradient from 10% acetonitrile to 95% acetonitrile.

Tetranychus urticae = Tetranychus urticae spray test, OP-resistant (TETRUR); format: in vivo; details: after 6 days; for pest or weed control at 500 g/ha: Tetranychus urticae, 144 h, read-out: efficacy
Description: Tetranychus urticae—Spray Test, OP-Resistant (TETRUR)
• Solvent: 78.0 parts by weight of acetone • 1.5 parts by weight of dimethylformamide • Emulsifier: 0.5 part by weight of alkylaryl polyglycol ether
To produce an appropriate active ingredient formulation, 1 part by weight of active ingredient is mixed with the specified amounts of solvent and emulsifier, and the concentrate is diluted to the desired concentration with emulsifier-containing water.
Discs of bean leaves (Phaseolus vulgaris) infested by all stages of the greenhouse red spider mite (Tetranychus urticae) are sprayed with an active ingredient formulation of the desired concentration.
After 6 days, the efficacy in % is determined 100% means that all the spider mites have been killed; 0% means that none of the spider mites have been killed.

[2] = log P by HPLC (OECD Guideline 117), method [a] acidic range; format: physicochemical; details: for logP[a]: HPLC, method [a] acidic range; for chromatographic logP: reversed-phase C18 HPLC column, acidic range
Description: as §1
[a] The LC-MS determination in the acidic range is effected at pH 2.7 with 0.1% aqueous formic acid and acetonitrile (contains 0.1% formic acid) as eluents; linear gradient from 10% acetonitrile to 95% acetonitrile.

[3] = pH 2.7, HPLC method [a], read-out: logP[a]
[4] = pH 2.7, HPLC, pH 2.7, read-out: log P[a]

Row | SMILES | logP[b] [1] | logP[a] [2] | chromatographic logP [1] | chromatographic logP [2, 3] | chromatographic logP [2, 4] | efficacy (Tetranychus urticae; application rate of 500 g/ha) | pest or weed control at 500 g/ha (Tetranychus urticae; application rate of 500 g/ha) | efficacy (Tetranychus urticae; application rate of 100 g/ha)
1 | COc1nn(-c2cc([S+]([O-])CC(F)(F)F)c(C)cc2F)c(=O)n1C1CC1 (single isomer, unassigned) [Example 379] | 2.09 | 2.14 |  |  |  | 90% |  | 
2 | COc1nn(-c2cc([S+]([O-])CC(F)(F)F)c(C)cc2F)c(=O)n1C1CC1 (single isomer, unassigned) [Example 380] | 2.09 | 2.14 |  |  |  | 100% |  | 
3 | Cc1cc(F)c(-n2nc(C)n(C3CC3)c2=O)cc1SCC(F)(F)F [Example 42] | 2.73 | 2.76 |  |  |  | 90% |  | 
4 | Cc1cc(F)c(-n2nc(C(C)C)n(C3CC3)c2=O)cc1SCC(F)(F)F [Example 44] | 3.52 | 3.59 |  |  |  | 100% |  | 
5 | COCc1nn(-c2cc(SCC(F)(F)F)c(C)cc2F)c(=O)n1C1CC1 [Example 46] | 2.90 | 2.91 |  |  |  | 90% |  | 
6 | Cc1cc(C)c(-n2nc(C(F)(F)F)n(C3CC3)c2=O)cc1SCC(F)(F)F [Example 48] | 4.09 | 4.13 |  |  |  | 100% |  | 
7 | Cc1cc(C)c(-n2nc(C(F)(F)F)n(C(C)(C)C)c2=O)cc1SCC(F)(F)F [Example 49] | 4.88 | 4.95 |  |  |  | 90% |  | 
8 | CCn1c(C(F)(F)F)nn(-c2cc(SCC(F)(F)F)c(C)cc2Cl)c1=O [Example 50] | 4.07 | 4.14 |  |  |  | 100% |  | 
9 | O=c1n(-c2ccc(Cl)c(SCC(F)(F)F)c2)nc(C(F)(F)F)n1C1CC1 [Example 51] | 4.39 | 4.43 |  |  |  | 90% |  | 
10 | COc1ccc(-n2nc(C(F)(F)F)n(C3CC3)c2=O)cc1SCC(F)(F)F [Example 52] | 3.79 | 3.84 |  |  |  | 90% |  | 
11 | CCn1c(C(F)(F)F)nn(-c2ccc(C)c(SCC(F)(F)F)c2)c1=O [Example 54] | 4.32 | 4.38 |  |  |  | 90% |  | 
12 | Cc1cc(F)c(-n2nc(C(F)(F)F)n(CC(F)(F)F)c2=O)cc1SCC(F)(F)F [Example 55] | 4.11 | 4.22 |  |  |  | 90% |  | 
13 | CCn1c(C(F)(F)F)nn(-c2cc(SCC(F)(F)F)c(C)cc2F)c1=O [Example 57] | 3.88 | 3.96 |  |  |  | 90% |  | 
14 | Cc1cc(F)c(-n2nc(C(F)(F)F)n(C3CC3)c2=O)cc1SCC(F)(F)F [Example 59] | 3.91 | 3.97 |  |  |  | 100% |  | 
15 | Cc1cc(F)c(-n2nc(C(C)(C)C)n(C3CC3)c2=O)cc1SCC(F)(F)F [Example 63] | 4.11 | 4.17 |  |  |  | 100% |  | 
16 | Cc1cc(F)c(-n2nc(C3CC3)n(C3CC3)c2=O)cc1SCC(F)(F)F [Example 65] | 3.33 | 3.39 |  |  |  | 100% |  | 
17 | Cc1cc(F)c(-n2nc(C(F)(F)F)n(C(C)(C)C)c2=O)cc1SCC(F)(F)F [Example 67] | 4.66 | 4.78 |  |  |  | 90% |  | 
18 | CCCCc1nn(-c2cc(SCC(F)(F)F)c(C)cc2F)c(=O)n1C1CC1 [Example 71] | 3.96 | 4.05 |  |  |  | 90% |  | 
19 | CCOCc1nn(-c2cc(SCC(F)(F)F)c(C)cc2F)c(=O)n1C1CC1 [Example 73] | 3.27 | 3.33 |  |  |  | 90% |  | 
20 | COCCc1nn(-c2cc(SCC(F)(F)F)c(C)cc2F)c(=O)n1C1CC1 [Example 75] | 2.89 | 2.97 |  |  |  | 100% |  | 
21 | CCc1nn(-c2cc(SCC(F)(F)F)c(C)cc2F)c(=O)n1C1CC1 [Example 77] | 3.18 | 3.24 |  |  |  | 100% |  | 
22 | CCCc1nn(-c2cc(SCC(F)(F)F)c(C)cc2F)c(=O)n1C1CC1 [Example 79] | 3.56 | 3.64 |  |  |  | 100% |  | 
23 | Cc1cc(F)c(-n2nc(CC(C)C)n(C3CC3)c2=O)cc1SCC(F)(F)F [Example 83] | 3.93 | 3.99 |  |  |  | 100% |  | 
24 | CCC(C)c1nn(-c2cc(SCC(F)(F)F)c(C)cc2F)c(=O)n1C1CC1 (stereo not drawn) [Example 85] | 3.94 | 4.01 |  |  |  | 100% |  | 
25 | Cc1cc(F)c(-n2nc(C3CCC3)n(C3CC3)c2=O)cc1SCC(F)(F)F [Example 87] | 3.77 | 3.85 |  |  |  | 100% |  | 
26 | COCCn1c(C(F)(F)F)nn(-c2cc(SCC(F)(F)F)c(C)cc2F)c1=O [Example 89] | 3.73 | 3.80 |  |  |  | 100% |  | 
27 | COc1nn(-c2ccc(C)c(SCC(F)(F)F)c2)c(=O)n1C1CC1 [Example 90] | 3.67 | 3.74 |  |  |  | 100% |  | 

Continued, in another order:

Row | logP[b] [1] | logP[a] [2] | chromatographic logP [1] | chromatographic logP [2, 3] | chromatographic logP [2, 4] | SMILES | efficacy (Tetranychus urticae; application rate of 500 g/ha) | pest or weed control at 500 g/ha (Tetranychus urticae; application rate of 500 g/ha) | efficacy (Tetranychus urticae; application rate of 100 g/ha)
28 | 2.55 | 2.58 |  |  |  | Cc1cc(F)c(-n2nc(C3CC3)n(C(C)C)c2=O)cc1[S+]([O-])CC(F)(F)F (racemic) [Example 353] | 100% |  | 
29 | 2.35 | 2.38 |  |  |  | Cc1cc(F)c(-n2nc(C)n(-c3ccccc3)c2=O)cc1[S+]([O-])CC(F)(F)F (racemic) [Example 356] | 100% |  | 
30 | 2.36 | 2.38 |  |  |  | Cc1cc(F)c(-n2ncn(-c3ccccc3)c2=O)cc1[S+]([O-])CC(F)(F)F (racemic) [Example 357] | 90% |  | 
31 | 3.13 | 3.22 |  |  |  | O=c1n(-c2cc([S+]([O-])CC(F)(F)F)c(Cl)cc2F)nc(OCC(F)(F)F)n1C1CC1 (racemic) [Example 382] | 100% |  | 
32 | 3.26 | 3.27 |  |  |  | O=c1n(-c2cc([S+]([O-])CC(F)(F)F)c(Br)cc2F)nc(OCC(F)(F)F)n1C1CC1 (racemic) [Example 383] | 100% |  | 
33 | 3.52 | 3.60 |  |  |  | Cc1cc(F)c(-n2nc(OCC(C)(C)C)n(C3CC3)c2=O)cc1[S+]([O-])CC(F)(F)F (racemic) [Example 387] | 90% |  | 
34 | 3.09 | 3.10 |  |  |  | Cc1cc(F)c(-n2nc(C(C)(C)C)oc2=O)cc1[S+]([O-])CC(F)(F)F (racemic) [Example 452] | 100% |  | 
35 | 2.10 | 2.08 |  |  |  | COCc1nn(-c2cc([S+]([O-])CC(F)(F)F)c(C)cc2F)c(=O)o1 (racemic) [Example 453] | 100% |  | 
36 |  |  | 2.02 | 1.88 | 1.88 | Cc1cc(F)c(-n2ncn(C(C)C)c2=O)cc1[S+]([O-])CC(F)(F)F (stereo not drawn) [Example 6, 2-{2-Fluoro-4-methyl-5-[(2,2,2-trifluoroethyl)sulphinyl]phenyl}-4-isopropyl-2,4-dihydro-3H-1,2,4-triazol-3-one] |  | 80% | 
37 |  |  | 3.53 | 3.58 | 3.58 | Cc1cc(F)c(-n2nc(C(F)(F)F)n(C)c2=O)cc1SCC(F)(F)F [Example 9, 2-{2-Fluoro-4-methyl-5-[(2,2,2-trifluoroethyl)sulphanyl]phenyl}-4-methyl-5-(trifluoromethyl)-2,4-dihydro-3H-1,2,4-triazol-3-one] |  | 100% | 
38 |  |  | 2.46 | 2.52 | 2.52 | Cc1cc(F)c(-n2nc(C(F)(F)F)n(C)c2=O)cc1[S+]([O-])CC(F)(F)F (stereo not drawn) [Example 12, 2-{2-Fluoro-4-methyl-5-[(2,2,2-trifluoroethyl)sulphinyl]phenyl}-4-methyl-5-(trifluoromethyl)-2,4-dihydro-3H-1,2,4-triazol-3-one] |  | 100% | 
39 | 1.79 | 1.85 |  |  |  | Cc1cc(F)c(-n2nc(C)n(C3CC3)c2=O)cc1[S+]([O-])CC(F)(F)F (stereo not drawn) [Example 41] | 90% |  | 
40 | 2.47 | 2.52 |  |  |  | Cc1cc(F)c(-n2nc(C(C)C)n(C3CC3)c2=O)cc1[S+]([O-])CC(F)(F)F (stereo not drawn) [Example 43] | 100% |  | 
41 | 3.09 | 3.20 |  |  |  | Cc1cc(F)c(-n2nc(C(F)(F)F)n(CC(F)(F)F)c2=O)cc1[S+]([O-])CC(F)(F)F (stereo not drawn) [Example 56] |  |  | 90%
42 | 2.77 | 2.88 |  |  |  | CCn1c(C(F)(F)F)nn(-c2cc([S+]([O-])CC(F)(F)F)c(C)cc2F)c1=O (stereo not drawn) [Example 58] | 90% |  | 
43 | 3.89 | 3.98 |  |  |  | Cc1cc(F)c(-n2nc(-c3cccc(F)c3)n(C3CC3)c2=O)cc1SCC(F)(F)F [Example 69] |  |  | 100%
